Source: US8791132B2, “Compounds and methods for treatment of hypertension” (Medivation Technologies, Inc., priority 2011, dated 2014)

Tests used:
[1] = biological target: T1, rat adrenergic α1B receptor (Rattus norvegicus, UniProt P15823); test: Radioligand binding, adrenergic α1B ([3H]Prazosin); details: [3H]Prazosin, repeat datapoints each shown; for Percentage inhibition of ligand binding, Adrenergic α1B (0.1 μM): compound at 0.1 μM; for inhibition at 0.1 µM: read-out: Percentage inhibition of ligand binding, Adrenergic α1B (0.1 μM), compound at 0.1 μM
T1 construct: rat adrenergic α1B receptor obtained from Wistar Rat liver; from tissue; host or cells: Wistar rat liver
T1 sequence (P15823 1-515): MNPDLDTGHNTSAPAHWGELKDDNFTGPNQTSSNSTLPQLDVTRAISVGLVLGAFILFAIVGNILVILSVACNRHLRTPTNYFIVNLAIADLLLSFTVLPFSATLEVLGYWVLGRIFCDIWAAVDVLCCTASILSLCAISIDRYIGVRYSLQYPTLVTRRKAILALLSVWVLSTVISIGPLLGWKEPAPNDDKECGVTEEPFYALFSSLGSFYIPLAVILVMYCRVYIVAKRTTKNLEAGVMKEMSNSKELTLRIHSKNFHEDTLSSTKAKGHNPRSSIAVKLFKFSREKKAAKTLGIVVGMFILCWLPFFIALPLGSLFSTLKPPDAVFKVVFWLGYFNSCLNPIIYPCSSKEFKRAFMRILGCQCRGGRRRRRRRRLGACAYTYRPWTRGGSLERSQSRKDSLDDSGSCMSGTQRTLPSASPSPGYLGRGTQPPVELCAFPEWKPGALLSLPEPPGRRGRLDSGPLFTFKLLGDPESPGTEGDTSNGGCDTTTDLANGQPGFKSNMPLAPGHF
Procedure, shortened: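 Specific binding, taken as total minus that remaining with 10 μM phentolamine, is measured after filtration and counting. Rat liver receptor preparation and 0.25 nM [3H]prazosin are incubated with compound in 50 mM Tris-HCl (pH 7.4, 0.5 mM EDTA) at 25° C for 60 min. Activity is reported as percent inhibition.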

[2] = biological target: T2, human recombinant adrenergic α2A receptor (Homo sapiens, UniProt P08913); test: Radioligand binding, adrenergic α2A ([3H]MK-912); details: [3H]MK-912, repeat datapoints each shown; for inhibition at 0.1 µM: read-out: Percentage inhibition of ligand binding, Adrenergic α2A (0.1 μM), compound at 0.1 μM; for Percentage inhibition of ligand binding, Adrenergic α2A (0.1 μM): compound at 0.1 μM
T2 construct: expressed in transfected cells; host or cells: insect Sf9 cells
T2 sequence (P08913 1-465): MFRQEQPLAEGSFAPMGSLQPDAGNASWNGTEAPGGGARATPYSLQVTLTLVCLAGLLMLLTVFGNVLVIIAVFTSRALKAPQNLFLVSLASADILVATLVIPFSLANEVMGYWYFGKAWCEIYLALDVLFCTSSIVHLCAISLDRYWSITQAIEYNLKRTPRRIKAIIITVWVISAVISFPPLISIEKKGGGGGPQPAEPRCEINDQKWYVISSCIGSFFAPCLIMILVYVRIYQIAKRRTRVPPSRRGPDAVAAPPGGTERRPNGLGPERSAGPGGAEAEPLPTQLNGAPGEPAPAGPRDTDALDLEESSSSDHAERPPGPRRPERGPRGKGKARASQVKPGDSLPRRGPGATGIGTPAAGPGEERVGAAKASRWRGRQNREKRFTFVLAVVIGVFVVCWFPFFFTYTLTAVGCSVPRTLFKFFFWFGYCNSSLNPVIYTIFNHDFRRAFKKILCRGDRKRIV
Procedure, shortened: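 Sf9 membranes, 1 nM [3H]MK-912, 60 min, 25 °C, Tris-HCl pH 7.4/MgCl2/EDTA buffer. NSB: 10 μM WB-4101. Filtration, counting; % inhibition of specific binding.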

[3] = biological target: T3, human recombinant adrenergic α2B receptor (Homo sapiens, UniProt P18089); test: Radioligand binding, adrenergic α2B ([3H]Rauwolscine); details: for Percentage inhibition of ligand binding, Adrenergic α2B (0.03 μM): compound at 0.03 μM; for inhibition at 0.03 µM: read-out: Percentage inhibition of ligand binding, Adrenergic α2B (0.03 μM), compound at 0.03 μM
T3 construct: expressed in transfected cells; host or cells: CHO-K1
T3 sequence (P18089 1-450): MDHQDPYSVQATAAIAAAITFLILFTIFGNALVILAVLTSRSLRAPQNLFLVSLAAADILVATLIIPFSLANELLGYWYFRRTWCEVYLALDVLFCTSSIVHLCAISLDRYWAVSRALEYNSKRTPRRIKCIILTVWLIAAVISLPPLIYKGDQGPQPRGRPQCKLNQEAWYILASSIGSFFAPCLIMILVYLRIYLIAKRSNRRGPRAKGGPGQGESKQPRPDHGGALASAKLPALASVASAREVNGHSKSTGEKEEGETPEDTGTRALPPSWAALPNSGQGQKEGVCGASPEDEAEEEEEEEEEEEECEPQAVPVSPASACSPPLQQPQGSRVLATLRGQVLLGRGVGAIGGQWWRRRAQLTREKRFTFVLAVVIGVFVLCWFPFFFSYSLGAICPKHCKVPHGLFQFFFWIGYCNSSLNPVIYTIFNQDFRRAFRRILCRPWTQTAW
Procedure, shortened: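 Receptor expressed in CHO-K1 cells, assayed in 50 mM Tris-HCl pH 7.4 with 12.5 mM MgCl2, 1 mM EDTA and 0.2% BSA. Compounds were incubated with 2.5 nM [3H]Rauwolscine for 60 min at 25° C; 10 μM Prazosin defined non-specific binding. Filter counting gave percent inhibition of specific binding.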

[4] = [3H]Rauwolscine, repeat datapoints each shown

Row | Structure (SMILES) | Percentage inhibition of ligand binding, Adrenergic α1B (0.1 μM) [1] [%] | inhibition at 0.03 µM ([1]; read-out: Percentage inhibition of ligand binding, Adrenergic α1B (0.03 μM), compound at 0.03 μM) [%] | inhibition at 0.1 µM [1] [%] | inhibition at 0.1 µM [2] [%] | Percentage inhibition of ligand binding, Adrenergic α2B (0.03 μM) [3, 4] [%] | Ki ([3]; read-out: Ki α2B) [nM] | inhibition at 0.03 µM [3, 4] [%] | inhibition at 0.1 µM ([3]; read-out: Percentage inhibition of ligand binding, Adrenergic α2B (0.1 μM), compound at 0.1 μM, [3H]Rauwolscine, repeat datapoints each shown) [%] | Percentage inhibition of ligand binding, Adrenergic α2A (0.1 μM) [2] [%]
1 | Cc1ccc2c(c1)c1c(n2CC(C)(O)c2cccnc2)CCN(C)CC1 (single isomer, unassigned) [II-135b, 1-(3,9-dimethyl-2,3,4,5-tetrahydroazepino[4,5-b]indol-6(1H)-yl)-2-(pyridin-3-yl)propan-2-ol] | 70 | 26 | 60 | 40 | 105 | 0.53 | 103 | 105 | 
2 | Cc1ccc2c(c1)c1c(n2CC(C)(O)c2ccc(C(N)=O)nc2)CCN(C)C1 (single isomer, unassigned) [II-136a, 5-(1-(1,2,3,4-tetrahydro-2,8-dimethylpyrido[4,3-b]indol-5-yl)-2-hydroxypropan-2-yl)pyridine-2-carboxamide] | 60 |  |  | 7 |  |  | 36 |  | 
3 | Cc1ccc2c(c1)c1c(n2CC(C)(O)c2ccc(C(N)=O)nc2)CCN(C)C1 (single isomer, unassigned) [II-136b, 5-(1-(1,2,3,4-tetrahydro-2,8-dimethylpyrido[4,3-b]indol-5-yl)-2-hydroxypropan-2-yl)pyridine-2-carboxamide] | 31 |  |  |  | 32 |  |  |  | 5
4 | Cc1cnc2c(c1)c1c(n2CC(C)(O)c2ccc(F)cc2)CCN2CCCC12 (single isomer, unassigned) [II-149a, 2-(4-fluoro-phenyl)-1-(9-methyl-1,2,3,4,5,10c-hexahydro-3a,6,7-triazacyclopenta[c]fluoren-6-yl)-propan-2-ol] | 90 |  |  |  | 104 |  |  |  | 53
5 | Cc1cnc2c(c1)c1c(n2CC(C)(O)c2ccc(F)cc2)CCN2CCCC12 (single isomer, unassigned) [II-149b, 2-(4-fluoro-phenyl)-1-(9-methyl-1,2,3,4,5,10c-hexahydro-3a,6,7-triazacyclopenta[c]fluoren-6-yl)-propan-2-ol] | 59 |  |  |  | 96 |  |  |  | 27
6 | Cc1cnc2c(c1)c1c(n2CC(C)(O)c2ccc(F)cc2)CCN2CCCC12 (single isomer, unassigned) [II-149c, 2-(4-fluoro-phenyl)-1-(9-methyl-1,2,3,4,5,10c-hexahydro-3a,6,7-triazacyclopenta[c]fluoren-6-yl)-propan-2-ol] | 49 |  |  |  | 41 |  |  |  | 5
7 | Cc1cnc2c(c1)c1c(n2CC(C)(O)c2ccc(F)cc2)CCN2CCCC12 (single isomer, unassigned) [II-149d, 2-(4-fluoro-phenyl)-1-(9-methyl-1,2,3,4,5,10c-hexahydro-3a,6,7-triazacyclopenta[c]fluoren-6-yl)-propan-2-ol] | 41 |  |  |  | 44 |  |  |  | 7

The remaining lines, values ahead:

Row | Percentage inhibition of ligand binding, Adrenergic α1B (0.1 μM) [1] [%] | inhibition at 0.03 µM ([1]; read-out: Percentage inhibition of ligand binding, Adrenergic α1B (0.03 μM), compound at 0.03 μM) [%] | inhibition at 0.1 µM [1] [%] | inhibition at 0.1 µM [2] [%] | Percentage inhibition of ligand binding, Adrenergic α2B (0.03 μM) [3, 4] [%] | Ki ([3]; read-out: Ki α2B) [nM] | inhibition at 0.03 µM [3, 4] [%] | inhibition at 0.1 µM ([3]; read-out: Percentage inhibition of ligand binding, Adrenergic α2B (0.1 μM), compound at 0.1 μM, [3H]Rauwolscine, repeat datapoints each shown) [%] | Percentage inhibition of ligand binding, Adrenergic α2A (0.1 μM) [2] [%] | Structure (SMILES)
8 |  |  | 23 |  | 102 |  |  |  | 47 | Cc1ccc2c(c1)c1c(n2CC(C)(O)c2cccnc2)CC(C)N(C)C1 (single isomer, unassigned) [II-146a, 2-(pyridin-3-yl)-1-(2,3,8-trimethyl-3,4-dihydro-1H-pyrido[4,3-b]indol-5(2H)-yl)propan-2-ol]
9 | 13 |  |  |  | 43 |  |  |  | 5 | Cc1ccc2c(c1)c1c(n2CC(C)(O)c2cccnc2)CC(C)N(C)C1 (single isomer, unassigned) [II-146b, 2-(pyridin-3-yl)-1-(2,3,8-trimethyl-3,4-dihydro-1H-pyrido[4,3-b]indol-5(2H)-yl)propan-2-ol]
10 | 17 |  |  |  | 42 |  |  |  | 8 | Cc1ccc2c(c1)c1c(n2CC(C)(O)c2cccnc2)CC(C)N(C)C1 (single isomer, unassigned) [II-146c, 2-(pyridin-3-yl)-1-(2,3,8-trimethyl-3,4-dihydro-1H-pyrido[4,3-b]indol-5(2H)-yl)propan-2-ol]
11 | 13 |  |  |  | 16 |  |  |  | 3 | Cc1ccc2c(c1)c1c(n2CC(C)(O)c2cccnc2)CC(C)N(C)C1 (single isomer, unassigned) [II-146d, 2-(pyridin-3-yl)-1-(2,3,8-trimethyl-3,4-dihydro-1H-pyrido[4,3-b]indol-5(2H)-yl)propan-2-ol]
12 | 32 |  |  |  | 102 |  |  |  | 57 | CC1Cc2c(c3cc(Cl)ccc3n2CC(C)(O)c2cccnc2)CN1C (single isomer, unassigned) [II-147a, 1-(8-chloro-2,3-dimethyl-3,4-dihydro-1H-pyrido[4,3-b]indol-5(2H)-yl)-2-(pyridin-3-yl)propan-2-ol]
13 | 20 |  |  |  | 66 |  |  |  | 15 | CC1Cc2c(c3cc(Cl)ccc3n2CC(C)(O)c2cccnc2)CN1C (single isomer, unassigned) [II-147b, 1-(8-chloro-2,3-dimethyl-3,4-dihydro-1H-pyrido[4,3-b]indol-5(2H)-yl)-2-(pyridin-3-yl)propan-2-ol]
14 | 7 |  |  |  | 38 |  |  |  | 3 | CC1Cc2c(c3cc(Cl)ccc3n2CC(C)(O)c2cccnc2)CN1C (single isomer, unassigned) [II-147c, 1-(8-chloro-2,3-dimethyl-3,4-dihydro-1H-pyrido[4,3-b]indol-5(2H)-yl)-2-(pyridin-3-yl)propan-2-ol]
15 | 10 |  |  |  | 13 |  |  |  | 4 | CC1Cc2c(c3cc(Cl)ccc3n2CC(C)(O)c2cccnc2)CN1C (single isomer, unassigned) [II-147d, 1-(8-chloro-2,3-dimethyl-3,4-dihydro-1H-pyrido[4,3-b]indol-5(2H)-yl)-2-(pyridin-3-yl)propan-2-ol]
